A compilation of properties of binary mixtures (doi:10.1016/j.molliq.2017.07.014)

Assay: xn = mol fraction of the nth substance listed
Settings: 101 kPa

CN1CCCC1=O + CCCC[P+](C)(CCCC)CCCC.COS(=O)(=O)[O-]
x2 = 0
Settings	speed of sound [m/s]	viscosity [mPa·s]
293.15 K	1570	1.9
298.15 K	1566	1.66
303.15 K	1552	1.49
308.15 K	1527	1.38
313.15 K	1518	1.3
318.15 K	1497	1.21
323.15 K	1491	1.15

CCCC[P+](C)(CCCC)CCCC.COS(=O)(=O)[O-] + CN1CCCC1=O
Settings	speed of sound [m/s]	viscosity [mPa·s]
293.15 K, x1 = 0.056	1574	9.6
293.15 K, x1 = 0.0914	1580	19.6
293.15 K, x1 = 0.1311	1585	28
293.15 K, x1 = 0.1773	1588	43
293.15 K, x1 = 0.2318	1590	67
293.15 K, x1 = 0.2971	1587	100
293.15 K, x1 = 0.3764	1582	138
293.15 K, x1 = 0.4752	1578	188
293.15 K, x1 = 0.6014	1575	290
293.15 K, x1 = 0.7129	1573	440
293.15 K, x1 = 0.8515	1568	580
293.15 K, x1 = 0.9022	1566	630
293.15 K, x1 = 0.9468	1565	680
293.15 K, x1 = 1	1564	730
298.15 K, x1 = 0.0914	1576	13.2
298.15 K, x1 = 0.1311	1580	18
298.15 K, x1 = 0.1773	1584	23.7
298.15 K, x1 = 0.2318	1585	39
298.15 K, x1 = 0.2971	1581	51
298.15 K, x1 = 0.4752	1572	114
298.15 K, x1 = 0.6014	1567	170
298.15 K, x1 = 0.8515	1553	410
298.15 K, x1 = 0.9022	1551	450
298.15 K, x1 = 0.9468	1549	490
303.15 K, x1 = 0.056	1556	2.01
303.15 K, x1 = 0.1311	1564	7.8
303.15 K, x1 = 0.3764	1561	40
303.15 K, x1 = 0.4752	1557	65
303.15 K, x1 = 0.6014	1552	108
303.15 K, x1 = 0.7129	1548	198
303.15 K, x1 = 0.8515	1538	300
303.15 K, x1 = 1	1530	380
308.15 K, x1 = 0.056	1536	2.01
308.15 K, x1 = 0.0914	1540	2.5
308.15 K, x1 = 0.1311	1544	3.4
308.15 K, x1 = 0.1773	1548	6.4
308.15 K, x1 = 0.2318	1549	8.9
308.15 K, x1 = 0.2971	1546	13.9
308.15 K, x1 = 0.3764	1542	20.5
308.15 K, x1 = 0.4752	1539	31
308.15 K, x1 = 0.6014	1536	67
308.15 K, x1 = 0.7129	1533	131
308.15 K, x1 = 0.8086	1528	192
308.15 K, x1 = 0.8515	1524	221
308.15 K, x1 = 0.9022	1522	245
308.15 K, x1 = 0.9468	1519	270
308.15 K, x1 = 1	1514	290
313.15 K, x1 = 0.0914	1536	2.21
313.15 K, x1 = 0.1311	1539	3.2
313.15 K, x1 = 0.2318	1542	6.8
313.15 K, x1 = 0.2971	1539	12.1
313.15 K, x1 = 0.3764	1535	15.2
313.15 K, x1 = 0.4752	1531	17.7
313.15 K, x1 = 0.6014	1526	45
313.15 K, x1 = 0.7129	1522	95
313.15 K, x1 = 0.8086	1517	144
313.15 K, x1 = 0.8515	1515	166
313.15 K, x1 = 0.9022	1509	186
313.15 K, x1 = 0.9468	1507	201
313.15 K, x1 = 1	1499	217
318.15 K, x1 = 0.056	1511	1.1
318.15 K, x1 = 0.0914	1518	2.5
318.15 K, x1 = 0.1311	1522	4.5
318.15 K, x1 = 0.1773	1523	6.4
318.15 K, x1 = 0.2971	1521	10.2
318.15 K, x1 = 0.3764	1518	12.1
318.15 K, x1 = 0.4752	1515	12.3
318.15 K, x1 = 0.6014	1511	32
318.15 K, x1 = 0.8515	1502	128
318.15 K, x1 = 0.9022	1498	144
318.15 K, x1 = 0.9468	1495	159
318.15 K, x1 = 1	1486	169
323.15 K, x1 = 0.056	1506	1.11
323.15 K, x1 = 0.1311	1517	3.8
323.15 K, x1 = 0.1773	1518	5.7
323.15 K, x1 = 0.2318	1518	10.1
323.15 K, x1 = 0.2971	1515	11.1
323.15 K, x1 = 0.3764	1512	13.1
323.15 K, x1 = 0.4752	1508	13.2
323.15 K, x1 = 0.7129	1499	59
323.15 K, x1 = 0.8086	1495	88
323.15 K, x1 = 0.8515	1491	103
323.15 K, x1 = 0.9022	1488	116
323.15 K, x1 = 0.9468	1484	124
323.15 K, x1 = 1	1472	133
